In PMC5736695, “Lectin activity of the pneumococcal pilin proteins” (Scientific Reports, 2017):
Read-outs that look alike come from different tables or passages of the source.

How the values were obtained:
Assay type in all cases: binding
[1] = molecular target: RrgA SPEC6B (Streptococcus pneumoniae, UniProt A7KT31); assay: SPR (Biacore T100); details: read-out: RrgA SPEC6B; free oligosaccharide; protein immobilised on CM5 chip; glycans 160 nM to 100 µM
Source text: SPR (Biacore T100) on RrgA SPEC6B

[2] = molecular target: T1, RrgA TIGR4 (RrgA T4) (Streptococcus pneumoniae, UniProt A0A0H2UNT6); assay: SPR (Biacore T100)
T1 construct: gene SP_0462
Source text: SPR (Biacore T100) on RrgA TIGR4 (RrgA T4)

[3] = molecular target: T2, RrgC T4 (Streptococcus pneumoniae, UniProt A0A0H2UNM0); assay: glycan array, fluorescence; details: glycan printed on slide via spacer; PBS, 1 mM MgCl2, 1 mM CaCl2; protein pre-complexed with anti-His and labelled secondary antibodies
T2 construct: gene SP_0464
Source text: glycan array, fluorescence on RrgC T4

[4] = molecular target: T3, RrgB T4 (Streptococcus pneumoniae, UniProt A0A0H2UNM7); assay: glycan array, fluorescence; details: glycan printed on slide via spacer; PBS, 1 mM MgCl2, 1 mM CaCl2; protein pre-complexed with anti-His and labelled secondary antibodies
T3 construct: gene SP_0463
Source text: glycan array, fluorescence on RrgB T4

[5] = read-out: RrgA TIGR4, free oligosaccharide, protein immobilised on CM5 chip, glycans 160 nM to 100 µM

T1 sequence (A0A0H2UNT6 entry or part of it): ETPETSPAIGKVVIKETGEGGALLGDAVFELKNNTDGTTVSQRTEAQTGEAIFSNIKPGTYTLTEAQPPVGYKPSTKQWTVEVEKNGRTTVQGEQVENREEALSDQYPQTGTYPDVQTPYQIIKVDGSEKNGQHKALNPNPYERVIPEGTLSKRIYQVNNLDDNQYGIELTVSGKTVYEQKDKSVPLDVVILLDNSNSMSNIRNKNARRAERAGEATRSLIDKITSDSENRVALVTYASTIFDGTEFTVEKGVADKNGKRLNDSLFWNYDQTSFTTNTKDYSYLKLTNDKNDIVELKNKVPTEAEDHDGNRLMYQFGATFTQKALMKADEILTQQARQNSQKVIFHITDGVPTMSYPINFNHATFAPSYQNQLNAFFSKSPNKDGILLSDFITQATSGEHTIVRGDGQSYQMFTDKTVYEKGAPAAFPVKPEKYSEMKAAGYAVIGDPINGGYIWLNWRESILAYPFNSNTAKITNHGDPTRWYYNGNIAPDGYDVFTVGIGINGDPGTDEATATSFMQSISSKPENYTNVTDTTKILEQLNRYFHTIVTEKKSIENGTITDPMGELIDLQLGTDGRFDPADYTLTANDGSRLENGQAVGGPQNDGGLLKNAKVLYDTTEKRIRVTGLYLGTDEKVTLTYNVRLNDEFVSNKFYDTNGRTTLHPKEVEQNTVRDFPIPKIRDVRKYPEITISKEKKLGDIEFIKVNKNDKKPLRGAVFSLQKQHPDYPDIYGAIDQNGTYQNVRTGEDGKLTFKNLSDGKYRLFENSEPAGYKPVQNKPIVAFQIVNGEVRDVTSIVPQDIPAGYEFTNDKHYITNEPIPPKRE
RrgA SPEC6B, sequence (A7KT31 entry or part of it): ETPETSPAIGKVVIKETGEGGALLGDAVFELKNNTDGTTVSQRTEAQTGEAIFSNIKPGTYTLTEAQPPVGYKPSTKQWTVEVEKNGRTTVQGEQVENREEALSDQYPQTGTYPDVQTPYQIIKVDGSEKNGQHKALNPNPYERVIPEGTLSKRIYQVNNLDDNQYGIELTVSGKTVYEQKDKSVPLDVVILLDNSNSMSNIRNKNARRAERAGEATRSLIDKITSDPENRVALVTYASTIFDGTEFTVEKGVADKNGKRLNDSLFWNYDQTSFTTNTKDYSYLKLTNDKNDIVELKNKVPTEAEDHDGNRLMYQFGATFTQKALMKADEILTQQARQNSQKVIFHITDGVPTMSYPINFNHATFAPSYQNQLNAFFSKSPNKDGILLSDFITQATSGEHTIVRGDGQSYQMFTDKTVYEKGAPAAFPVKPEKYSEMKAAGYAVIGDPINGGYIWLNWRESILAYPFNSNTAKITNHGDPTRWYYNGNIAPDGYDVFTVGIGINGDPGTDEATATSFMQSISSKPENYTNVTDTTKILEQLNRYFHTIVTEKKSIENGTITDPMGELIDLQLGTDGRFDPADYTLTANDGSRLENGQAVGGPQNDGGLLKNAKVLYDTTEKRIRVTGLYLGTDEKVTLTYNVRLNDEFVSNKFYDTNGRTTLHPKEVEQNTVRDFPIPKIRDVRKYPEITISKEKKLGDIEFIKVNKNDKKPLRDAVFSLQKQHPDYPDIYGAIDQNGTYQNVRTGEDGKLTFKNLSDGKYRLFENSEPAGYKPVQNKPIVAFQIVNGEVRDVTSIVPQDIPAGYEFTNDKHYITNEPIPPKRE
T2 sequence (A0A0H2UNM0 entry or part of it): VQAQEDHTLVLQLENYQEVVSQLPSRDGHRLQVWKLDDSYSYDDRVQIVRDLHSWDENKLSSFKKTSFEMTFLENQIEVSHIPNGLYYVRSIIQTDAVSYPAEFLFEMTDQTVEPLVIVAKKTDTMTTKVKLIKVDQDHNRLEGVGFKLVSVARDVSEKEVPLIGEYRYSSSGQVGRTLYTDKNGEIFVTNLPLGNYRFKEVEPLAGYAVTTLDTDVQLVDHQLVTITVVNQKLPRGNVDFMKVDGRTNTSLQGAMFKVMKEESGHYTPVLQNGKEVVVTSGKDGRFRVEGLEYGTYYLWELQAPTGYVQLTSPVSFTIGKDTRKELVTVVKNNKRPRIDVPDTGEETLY
T3 sequence (A0A0H2UNM7 entry or part of it): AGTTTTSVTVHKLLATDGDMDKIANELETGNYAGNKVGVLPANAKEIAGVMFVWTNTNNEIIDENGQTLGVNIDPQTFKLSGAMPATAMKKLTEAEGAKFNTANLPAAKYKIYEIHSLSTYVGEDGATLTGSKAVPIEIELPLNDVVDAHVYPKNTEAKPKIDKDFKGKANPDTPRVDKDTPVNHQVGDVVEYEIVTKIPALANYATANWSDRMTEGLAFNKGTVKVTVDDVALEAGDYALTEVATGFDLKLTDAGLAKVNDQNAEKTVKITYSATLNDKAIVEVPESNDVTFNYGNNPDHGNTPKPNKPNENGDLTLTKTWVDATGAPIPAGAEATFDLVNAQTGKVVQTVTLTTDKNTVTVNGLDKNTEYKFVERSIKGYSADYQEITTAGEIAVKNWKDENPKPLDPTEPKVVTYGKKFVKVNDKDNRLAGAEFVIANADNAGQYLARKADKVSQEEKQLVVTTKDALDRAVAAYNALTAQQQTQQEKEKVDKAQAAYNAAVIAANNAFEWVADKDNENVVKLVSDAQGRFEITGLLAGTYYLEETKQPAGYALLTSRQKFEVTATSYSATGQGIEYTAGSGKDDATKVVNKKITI

Molecule | Kd [1] | Kd [2, 5] | also measured
CC(=O)N[C@H]1[C@H](O[C@H]2[C@@H](O)[C@@H](CO)O[C@@H](O[C@H]3[C@H](O)[C@@H](O)C(O)O[C@@H]3CO)[C@@H]2O)O[C@H](CO)[C@@H](O)[C@@H]1O[C@@H]1O[C@H](CO)[C@H](O)[C@H](O)[C@H]1O (stereo partly shown) [1G, Lacto-N-tetraose] | 0.869 ± 0.454 µM | 1.03 ± 0.05 µM | –
CC(=O)N[C@H]1[C@@H](O[C@H]2[C@@H](O)[C@@H](CO)OC(O)[C@@H]2O[C@@H]2O[C@@H](C)[C@@H](O)[C@@H](O)[C@@H]2O)O[C@H](CO)[C@H](O)[C@@H]1O (stereo partly shown) [7K, Blood group A tri] | 1.4 ± 0.29 µM | 0.916 ± 0.0664 µM | –
CC(=O)N[C@H]1[C@@H](O[C@H]2[C@@H](O)[C@@H](CO)O[C@@H](O[C@H]3[C@@H](O)[C@@H](CO)OC(O)[C@@H]3NC(C)=O)[C@@H]2O[C@@H]2O[C@@H](C)[C@@H](O)[C@@H](O)[C@@H]2O)O[C@H](CO)[C@H](O)[C@@H]1O (stereo partly shown) [Blood group A type3/4] | 0.644 ± 0.157 µM | 0.871 ± 0.286 µM | –
CC(=O)N[C@H]1C(O)O[C@H](CO)[C@H](O)[C@@H]1O[C@@H]1O[C@H](CO)[C@H](O)[C@H](O)[C@H]1O[C@@H]1O[C@@H](C)[C@@H](O)[C@@H](O)[C@@H]1O (stereo partly shown) [Blood group H type 3/4] | 0.358 ± 0.051 µM | – | Kd ([2]; read-out: RrgA TIGR4, free oligosaccharide, protein immobilised on CM5 chip, glycans 160 nM to 100 µM (value below tested range)): 0.0894 ± 0.016 µM
CC(=O)N[C@H]1C(O)O[C@H](CO)[C@@H](O[C@@H]2O[C@H](CO)[C@H](O)[C@H](O)[C@H]2O)[C@@H]1O[C@@H]1O[C@@H](C)[C@@H](O)[C@@H](O)[C@@H]1O (stereo partly shown) [Lewis X] | 0.363 ± 0.107 µM | – | Kd [2]: 0.434 ± 0.118 µM
OC[C@H]1O[C@@H](O[C@H]2[C@H](O)[C@@H](O)C(O)O[C@@H]2CO)[C@H](O)[C@@H](O)[C@@H]1O (stereo partly shown) [cellobiose] | 0.583 ± 0.155 µM | – | –
CC(=O)N[C@H]1[C@H](O[C@H]2[C@H](O)[C@@H](NC(C)=O)C(O)O[C@@H]2CO)O[C@H](CO)[C@@H](O)[C@@H]1O (stereo partly shown) [chitobiose] | 0.426 ± 0.144 µM | 0.409 ± 0.16 µM | –
OC[C@H]1O[C@H](O[C@H]2[C@H](O)[C@@H](O)C(O)O[C@@H]2CO)[C@H](O)[C@@H](O)[C@@H]1O (stereo partly shown) [maltobiose] | 0.964 ± 0.226 µM | 1.16 ± 0.09 µM | –
Fucα1-2Galβ1-3(Fucα1-4)GlcNAcβ1-3Galβ1-4Glcβ-sp4 [compound 496] | – | – | RrgC T4 [3]: 1192 ± 322
Galα1-3Galβ1-4GlcNAcβ-sp3 [compound 222] | – | – | RrgC T4 [3]: 3108 ± 641
Galβ1-6Galβ-sp4 [compound 100] | – | – | RrgC T4 [3]: 3443.5 ± 523
Manα1-3Manβ-sp4 [compound 120] | – | – | RrgB T4 [4]: 1332 ± 275
